Assay results published in patent US10479782B2, “Forms of lumacaftor and processes for the preparation thereof” (Mylan Laboratories LImited, priority 2015, dated 2019).

How the values were obtained:
[1] = Storage stability, chemical (purity by HPLC analysis); type: physicochemical
Method: Thus, in addition to PXRD analyses, HPLC analyses were also performed. HPLC separations may be performed on an HPLC column and detector system, such as an Kromasil 100 C18 column (150×4.6 mm, 3.5 μm) or its equivalent using a UV detector set at 220 nm with a column oven temperature of about 30° C. A flow rate of 1.0 mL/min with an injection volume of 10 μL may be used, with a run time of approximately 35 minutes.
[…] The samples were tested for stability by PXRD analysis and for purity by HPLC analysis.
(§1) As an example, Table 1 below provides data collected on amorphous lumacaftor.
(§2) As another example, Table 2 below provides data collected on crystalline lumacaftor ethyl acetate solvate and the crystalline lumacaftor acetic acid solvate.

[2] = Storage stability, physical (PXRD analysis); type: physicochemical
Method: Amorphous lumacaftor as prepared by methods herein may be characterized as amorphous by powder X-ray diffraction (PXRD). Thus, samples of amorphous lumacaftor were analyzed by X-ray diffraction on a BRUKER D-8 Discover powder diffractometer equipped with a goniometer of θ/2θ configuration and Lynx Eye detector. The Cu-anode X-ray tube was operated at 40 kV and 30 mA. The experiments were conducted over the […] of 2.0°-50.0°, 0.030° step size, and 0.4 seconds step time.
Another aspect of the present invention provides a crystalline lumacaftor acetic acid solvate. The crystalline lumacaftor acetic acid solvate prepared by methods disclosed herein may be characterized by PXRD. Thus, PXRD analyses of the crystalline lumacaftor acetic acid solvate were carried out on a PANalytical, X'Pert PRO powder diffractometer equipped with goniometer of θ/θ configuration and X'Celerator detector. The Cu-anode X-ray tube was operated at 40 kV and 30 mA. The experiments were conducted over the 2θ range of 2.0°-50.0°, 0.030° step size, and 50 seconds step time.
The lumacaftor ethyl acetate solvate prepared by methods disclosed herein may be characterized by PXRD. Thus, PXRD analyses of the lumacaftor ethyl acetate solvate were carried out on a PANalytical, X'Pert PRO powder diffractometer equipped with goniometer of θ/θ configuration and X'Celerator detector. The Cu-anode X-ray tube is operated at 40 kV and 30 mA. The experiments were conducted over the 2θ range of 2.0°-50.0°, 0.0300 step size, and 50 seconds step time.
The physical and chemical stabilities of the crystalline lumacaftor acetic acid solvate and the crystalline lumacaftor ethyl acetate solvate were determined by storing samples of each at 40° C./75% relative humidity (RH) and at 25° C./60% RH for six months. The samples were tested for stability by PXRD analysis and for purity by HPLC analysis.
as §1, §2

[3] = storage at 25° C./60% RH, 1 months
[4] = storage at 25° C./60% RH, 2 months
[5] = storage at 25° C./60% RH, 3 months
[6] = storage at 25° C./60% RH, 15 days
[7] = storage at 25° C./60% RH, Initial
[8] = stored for 3 months at 5±3° C. and 25° C./60% relative humidity (RH)
[9] = storage at 25° C./60% RH, 6 months
[10] = storage at 40° C./75% RH, 1 months
[11] = storage at 40° C./75% RH, 2 months
[12] = storage at 40° C./75% RH, 3 months
[13] = storage at 40° C./75% RH, 6 months
[14] = storage at 40° C./75% RH, 15 days
[15] = storage at 40° C./75% RH, Initial
[16] = stored for 6 months at 25° C./60% and 40° C./75% relative humidity (RH)

SMILES: Cc1ccc(NC(=O)C2(c3ccc4c(c3)OC(F)(F)O4)CC2)nc1-c1cccc(C(=O)O)c1 [Amorphous lumacaftor, 3-(6-(1-(2,2-difluorobenzo[d][1,3]dioxol-5-yl)cyclopropanecarboxamido)-3-methylpyridin-2-yl)benzoic acid]
- HPLC Purity (%) ([1]; storage at 5 ± 3° C., 1 months): 99.61%
- HPLC Purity (%) ([1]; storage at 5 ± 3° C., 2 months): 99.63%
- HPLC Purity (%) ([1]; storage at 5 ± 3° C., 3 months): 99.64%
- HPLC Purity (%) ([1]; storage at 5 ± 3° C., 15 days): 99.67%
- HPLC Purity (%) ([1]; storage at 5 ± 3° C., Initial): 99.65%
- HPLC Purity (%) [1, 3]: 99.63%
- HPLC Purity (%) [1, 4]: 99.60%
- HPLC Purity (%) [1, 5]: 99.65%
- HPLC Purity (%) [1, 6]: 99.67%
- HPLC Purity (%) [1, 7]: 99.65%
- chemical degradation on storage [1, 8]: no significant chemical degradation
- PXRD ([2]; storage at 5 ± 3° C., 1 months): Stable
- PXRD ([2]; storage at 5 ± 3° C., 2 months): Stable
- PXRD ([2]; storage at 5 ± 3° C., 3 months): Stable
- PXRD ([2]; storage at 5 ± 3° C., 15 days): Stable
- PXRD ([2]; storage at 5 ± 3° C., Initial): Amorphous
- PXRD [2, 3]: Stable
- PXRD [2, 4]: Stable
- PXRD [2, 5]: Stable
- PXRD [2, 6]: Stable
- PXRD [2, 7]: Amorphous
- change in PXRD pattern on storage [2, 8]: no change in PXRD pattern

SMILES: Cc1ccc(NC(=O)C2(c3ccc4c(c3)OC(F)(F)O4)CC2)nc1-c1cccc(C(=O)O)c1 [Lumacaftor acetic acid solvate, 3-(6-(1-(2,2-difluorobenzo[d][1,3]dioxol-5-yl)cyclopropanecarboxamido)-3-methylpyridin-2-yl)benzoic acid]
- HPLC Purity (%) [1, 3]: 99.92%
- HPLC Purity (%) [1, 4]: 99.92%
- HPLC Purity (%) [1, 5]: 99.89%
- HPLC Purity (%) [1, 9]: 99.93%
- HPLC Purity (%) [1, 6]: 99.92%
- HPLC Purity (%) [1, 7]: 99.84%
- HPLC Purity (%) [1, 10]: 99.93%
- HPLC Purity (%) [1, 11]: 99.93%
- HPLC Purity (%) [1, 12]: 99.89%
- HPLC Purity (%) [1, 13]: 99.92%
- HPLC Purity (%) [1, 14]: 99.92%
- HPLC Purity (%) [1, 15]: 99.84%
- chemical degradation on storage [1, 16]: neither the lumacaftor ethyl acetate solvate nor the lumacaftor acetic acid solvate display any significant chemical degradation
- PXRD [2, 3]: Stable
- PXRD [2, 4]: Stable
- PXRD [2, 5]: Stable
- PXRD [2, 9]: Stable
- PXRD [2, 6]: Stable
- PXRD [2, 7]: Crystalline
- PXRD [2, 10]: Stable
- PXRD [2, 11]: Stable
- PXRD [2, 12]: Stable
- PXRD [2, 13]: Stable
- PXRD [2, 14]: Stable
- PXRD [2, 15]: Crystalline
- change in PXRD pattern on storage [2, 16]: neither the lumacaftor ethyl acetate solvate nor the lumacaftor acetic acid solvate display any significant chemical degradation or any change in PXRD pattern

SMILES: Cc1ccc(NC(=O)C2(c3ccc4c(c3)OC(F)(F)O4)CC2)nc1-c1cccc(C(=O)O)c1 [Lumacaftor ethyl acetate solvate, 3-(6-(1-(2,2-difluorobenzo[d][1,3]dioxol-5-yl)cyclopropanecarboxamido)-3-methylpyridin-2-yl)benzoic acid]
- HPLC Purity (%) [1, 3]: 99.93%
- HPLC Purity (%) [1, 4]: 99.95%
- HPLC Purity (%) [1, 5]: 99.92%
- HPLC Purity (%) [1, 9]: 99.95%
- HPLC Purity (%) [1, 6]: 99.95%
- HPLC Purity (%) [1, 7]: 99.97%
- HPLC Purity (%) [1, 10]: 99.94%
- HPLC Purity (%) [1, 11]: 99.95%
- HPLC Purity (%) [1, 12]: 99.95%
- HPLC Purity (%) [1, 13]: 99.95%
- HPLC Purity (%) [1, 14]: 99.95%
- HPLC Purity (%) [1, 15]: 99.97%
- chemical degradation on storage [1, 16]: neither the lumacaftor ethyl acetate solvate nor the lumacaftor acetic acid solvate display any significant chemical degradation
- PXRD [2, 3]: Stable
- PXRD [2, 4]: Stable
- PXRD [2, 5]: Stable
- PXRD [2, 9]: Stable
- PXRD [2, 6]: Stable
- PXRD [2, 7]: Crystalline
- PXRD [2, 10]: Stable
- PXRD [2, 11]: Stable
- PXRD [2, 12]: Stable
- PXRD [2, 13]: Stable
- PXRD [2, 14]: Stable
- PXRD [2, 15]: Crystalline
- change in PXRD pattern on storage [2, 16]: neither the lumacaftor ethyl acetate solvate nor the lumacaftor acetic acid solvate display any significant chemical degradation or any change in PXRD pattern
